Measured values: ChEMBL document CHEMBL1201862, “PubChem BioAssay data set” (2004)
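Method: 48-hour compound exposure of cells in 96-well plates, five concentrations, linear interpolation of endpoints. GI50 marks 50% less growth.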 Active and inactive are the calls of the source. Cut-off read from the data, not from the text of the source: active = GI50 up to about 1.1 µM and inactive = higher.

How the values were obtained:
Experiment in all cases: inhibition of tumour cell growth, NCI panel, 48 h
NCI/ADR-RES = test system: NCI/ADR-RES
UACC-62 = test system: UACC-62
SK-OV-3 = test system: SK-OV-3
COLO 205 = test system: COLO 205
M14 = test system: M14
ACHN = test system: ACHN
NCI-H522 = test system: NCI-H522
OVCAR-5 = test system: OVCAR-5
MDA-MB-435 = test system: MDA-MB-435
HL-60 = test system: HL-60
DU-145 = test system: DU-145
HCC 2998 = test system: HCC 2998
SF-268 = test system: SF-268
HT-29 = test system: HT-29
SN12C = test system: SN12C
TK-10 = test system: TK-10
OVCAR-8 = test system: OVCAR-8
UO-31 = test system: UO-31
CAKI-1 = test system: CAKI-1
IGROV-1 = test system: IGROV-1
SW-620 = test system: SW-620
SK-MEL-5 = test system: SK-MEL-5
Malme-3M = test system: Malme-3M
EKVX = test system: EKVX
HOP-92 = test system: HOP-92
T47D = test system: T47D
KM12 = test system: KM12
MDA-MB-231 = test system: MDA-MB-231
HCT-15 = test system: HCT-15
MCF7 = test system: MCF7
OVCAR-4 = test system: OVCAR-4
MOLT-4 = test system: MOLT-4
UACC-257 = test system: UACC-257
SK-MEL-2 = test system: SK-MEL-2
RXF 393 = test system: RXF 393
786-0 = test system: 786-0
SR = test system: SR
U-251 = test system: U-251
LOX IMVI = test system: LOX IMVI
K562 = test system: K562
BT-549 = test system: BT-549
SF-295 = test system: SF-295
MDA-N = test system: MDA-N
HCT-116 = test system: HCT-116
SNB-19 = test system: SNB-19
NCI-H226 = test system: NCI-H226
PC-3 = test system: PC-3
SK-MEL-28 = test system: SK-MEL-28
Hs-578T = test system: Hs-578T
RPMI-8226 = test system: RPMI-8226
NCI-H460 = test system: NCI-H460
NCI-H23 = test system: NCI-H23
SF-539 = test system: SF-539
OVCAR-3 = test system: OVCAR-3
A498 = test system: A498
SNB-75 = test system: SNB-75
A549 = test system: A549
HOP-62 = test system: HOP-62
CCRF-CEM = test system: CCRF-CEM

Compound: NCC(O)CN.Oc1c(Cl)c(Cl)c(Cl)c(Cl)c1Cl
- GI50 (NCI/ADR-RES): 18.1 µM (inactive)
- GI50 (UACC-62): 19 µM (inactive)
- GI50 (SK-OV-3): 21.6 µM (inactive)
- GI50 (COLO 205): 21 µM (inactive)
- GI50 (M14): 19.7 µM (inactive)
- GI50 (ACHN): 18.3 µM (inactive)
- GI50 (NCI-H522): 24.6 µM (inactive)
- GI50 (OVCAR-5): 18 µM (inactive)
- GI50 (MDA-MB-435): 34.4 µM (inactive)
- GI50 (HL-60): 16 µM (inactive)
- GI50 (DU-145): 31.6 µM (inactive)
- GI50 (HCC 2998): 17.9 µM (inactive)
- GI50 (SF-268): 29.2 µM (inactive)
- GI50 (HT-29): 17.8 µM (inactive)
- GI50 (SN12C): 20.3 µM (inactive)
- GI50 (TK-10): 24.5 µM (inactive)
- GI50 (OVCAR-8): 20.2 µM (inactive)
- GI50 (UO-31): 16.5 µM (inactive)
- GI50 (CAKI-1): 31.1 µM (inactive)
- GI50 (IGROV-1): 13.4 µM (inactive)
- GI50 (SW-620): 25.2 µM (inactive)
- GI50 (SK-MEL-5): 14.4 µM (inactive)
- GI50 (Malme-3M): 17.5 µM (inactive)
- GI50 (EKVX): 14.8 µM (inactive)
- GI50 (HOP-92): 20.7 µM (inactive)
- GI50 (T47D): 22.5 µM (inactive)
- GI50 (KM12): 20.2 µM (inactive)
- GI50 (MDA-MB-231): 20.2 µM (inactive)
- GI50 (HCT-15): 18.2 µM
- GI50 (MCF7): 32.9 µM (inactive)
- GI50 (OVCAR-4): 35.9 µM (inactive)
- GI50 (MOLT-4): 19.7 µM (inactive)
- GI50 (UACC-257): 21.2 µM (inactive)
- GI50 (SK-MEL-2): 22.5 µM (inactive)
- GI50 (RXF 393): 27 µM (inactive)
- GI50 (786-0): 23.6 µM (inactive)
- GI50 (SR): 25.5 µM (inactive)
- GI50 (U-251): 18.8 µM (inactive)
- GI50 (LOX IMVI): 17.3 µM (inactive)
- GI50 (K562): 27.9 µM (inactive)
- GI50 (BT-549): 24 µM (inactive)
- GI50 (SF-295): 17.6 µM (inactive)
- GI50 (MDA-N): 24.4 µM (inactive)
- GI50 (HCT-116): 18.2 µM (inactive)
- GI50 (SNB-19): 21 µM (inactive)
- GI50 (NCI-H226): 18 µM (inactive)
- GI50 (PC-3): 22 µM (inactive)
- GI50 (SK-MEL-28): 21.2 µM (inactive)
- GI50 (Hs-578T): 33.9 µM (inactive)
- GI50 (RPMI-8226): 22.8 µM (inactive)
- GI50 (NCI-H460): 18.7 µM (inactive)
- GI50 (NCI-H23): 16.9 µM (inactive)
- GI50 (SF-539): 24.4 µM (inactive)
- GI50 (OVCAR-3): 13.5 µM (inactive)
- GI50 (A498): 17.8 µM (inactive)
- GI50 (SNB-75): 22.1 µM (inactive)
- GI50 (A549): 18.7 µM (inactive)
- GI50 (HOP-62): 16.2 µM (inactive)

Compound: O=C(CCCl)NN=C1NCCCN1
- GI50 (NCI/ADR-RES): > 100 µM (inactive)
- GI50 (UACC-62): > 100 µM (inactive)
- GI50 (SK-OV-3): > 100 µM (inactive)
- GI50 (COLO 205): > 100 µM (inactive)
- GI50 (M14): > 100 µM (inactive)
- GI50 (ACHN): > 100 µM (inactive)
- GI50 (NCI-H522): > 100 µM (inactive)
- GI50 (OVCAR-5): > 100 µM (inactive)
- GI50 (MDA-MB-435): > 100 µM (inactive)
- GI50 (HL-60): > 100 µM (inactive)
- GI50 (DU-145): > 100 µM (inactive)
- GI50 (HCC 2998): > 100 µM (inactive)
- GI50 (SF-268): > 100 µM (inactive)
- GI50 (HT-29): > 100 µM (inactive)
- GI50 (SN12C): > 100 µM (inactive)
- GI50 (TK-10): > 100 µM (inactive)
- GI50 (OVCAR-8): > 100 µM (inactive)
- GI50 (UO-31): > 100 µM (inactive)
- GI50 (IGROV-1): > 100 µM (inactive)
- GI50 (SW-620): > 100 µM (inactive)
- GI50 (SK-MEL-5): > 100 µM (inactive)
- GI50 (Malme-3M): > 100 µM (inactive)
- GI50 (EKVX): > 100 µM (inactive)
- GI50 (HOP-92): > 100 µM (inactive)
- GI50 (T47D): > 100 µM (inactive)
- GI50 (KM12): > 100 µM (inactive)
- GI50 (MDA-MB-231): > 100 µM (inactive)
- GI50 (HCT-15): > 100 µM
- GI50 (MCF7): > 100 µM (inactive)
- GI50 (OVCAR-4): > 100 µM (inactive)
- GI50 (MOLT-4): > 100 µM (inactive)
- GI50 (CCRF-CEM): > 100 µM (inactive)
- GI50 (UACC-257): > 100 µM (inactive)
- GI50 (SK-MEL-2): > 100 µM (inactive)
- GI50 (RXF 393): > 100 µM (inactive)
- GI50 (786-0): > 100 µM (inactive)
- GI50 (SR): > 100 µM (inactive)
- GI50 (U-251): > 100 µM (inactive)
- GI50 (LOX IMVI): > 100 µM (inactive)
- GI50 (K562): > 100 µM (inactive)
- GI50 (BT-549): > 100 µM (inactive)
- GI50 (SF-295): > 100 µM (inactive)
- GI50 (MDA-N): > 100 µM (inactive)
- GI50 (HCT-116): > 100 µM (inactive)
- GI50 (SNB-19): > 100 µM (inactive)
- GI50 (NCI-H226): > 100 µM (inactive)
- GI50 (PC-3): > 100 µM (inactive)
- GI50 (SK-MEL-28): > 100 µM (inactive)
- GI50 (Hs-578T): > 100 µM (inactive)
- GI50 (RPMI-8226): > 100 µM (inactive)
- GI50 (NCI-H460): > 100 µM (inactive)
- GI50 (NCI-H23): > 100 µM (inactive)
- GI50 (SF-539): > 100 µM (inactive)
- GI50 (OVCAR-3): > 100 µM (inactive)
- GI50 (A498): > 100 µM (inactive)
- GI50 (SNB-75): > 100 µM (inactive)
- GI50 (A549): > 100 µM (inactive)
- GI50 (HOP-62): > 100 µM (inactive)

Compound: COc1ccc(CCN2C(=O)C(=O)C(C(=O)c3ccccc3)C2c2ccccc2)cc1OC (configuration not stated)
- GI50 (NCI/ADR-RES): 58.6 µM (inactive)
- GI50 (UACC-62): > 100 µM (inactive)
- GI50 (SK-OV-3): > 100 µM (inactive)
- GI50 (COLO 205): > 100 µM (inactive)
- GI50 (M14): > 100 µM (inactive)
- GI50 (ACHN): > 100 µM (inactive)
- GI50 (NCI-H522): > 100 µM (inactive)
- GI50 (OVCAR-5): > 100 µM (inactive)
- GI50 (MDA-MB-435): > 100 µM (inactive)
- GI50 (HL-60): > 100 µM (inactive)
- GI50 (DU-145): > 100 µM (inactive)
- GI50 (HCC 2998): > 100 µM (inactive)
- GI50 (SF-268): > 100 µM (inactive)
- GI50 (HT-29): > 100 µM (inactive)
- GI50 (SN12C): 67.8 µM (inactive)
- GI50 (TK-10): > 100 µM (inactive)
- GI50 (OVCAR-8): > 100 µM (inactive)
- GI50 (UO-31): > 100 µM (inactive)
- GI50 (CAKI-1): > 100 µM (inactive)
- GI50 (IGROV-1): > 100 µM (inactive)
- GI50 (SW-620): > 100 µM (inactive)
- GI50 (SK-MEL-5): > 100 µM (inactive)
- GI50 (Malme-3M): > 100 µM (inactive)
- GI50 (EKVX): > 100 µM (inactive)
- GI50 (HOP-92): 41.7 µM (inactive)
- GI50 (T47D): 90.8 µM (inactive)
- GI50 (KM12): > 100 µM (inactive)
- GI50 (MDA-MB-231): > 100 µM (inactive)
- GI50 (HCT-15): 60.5 µM
- GI50 (MCF7): > 100 µM (inactive)
- GI50 (MOLT-4): > 100 µM (inactive)
- GI50 (CCRF-CEM): 56.5 µM (inactive)
- GI50 (UACC-257): > 100 µM (inactive)
- GI50 (SK-MEL-2): > 100 µM (inactive)
- GI50 (RXF 393): > 100 µM (inactive)
- GI50 (786-0): > 100 µM (inactive)
- GI50 (SR): > 100 µM (inactive)
- GI50 (U-251): > 100 µM (inactive)
- GI50 (LOX IMVI): 86.7 µM (inactive)
- GI50 (K562): > 100 µM (inactive)
- GI50 (BT-549): 51.6 µM (inactive)
- GI50 (SF-295): 44.2 µM (inactive)
- GI50 (MDA-N): > 100 µM (inactive)
- GI50 (HCT-116): > 100 µM (inactive)
- GI50 (SNB-19): > 100 µM (inactive)
- GI50 (PC-3): > 100 µM (inactive)
- GI50 (SK-MEL-28): > 100 µM (inactive)
- GI50 (Hs-578T): 41.6 µM (inactive)
- GI50 (RPMI-8226): 51.2 µM (inactive)
- GI50 (NCI-H460): > 100 µM (inactive)
- GI50 (NCI-H23): > 100 µM (inactive)
- GI50 (SF-539): > 100 µM (inactive)
- GI50 (OVCAR-3): > 100 µM (inactive)
- GI50 (A498): > 100 µM (inactive)
- GI50 (A549): > 100 µM (inactive)
- GI50 (HOP-62): > 100 µM (inactive)
